In patent US8633184B2, “Benzoazepin-oxy-acetic acid derivatives as PPAR-delta agonists used for the increase of HDL-C, lower LDL-C and lower cholesterol” (Janssen Pharmaceutica N.V., priority 2006, dated 2014):

Columns and labels:
Assay type in all cases: cell-based
Conditions in all cases: 18-24 hrs
PPARα = molecular target: T1, PPARα (Homo sapiens, UniProt Q07869); test: Transfection assay, GAL4-PPARα LBD luciferase reporter in HEK293 cells
T1 construct: expressed in transfected cells; host or cells: HEK293
T1 sequence (Q07869 239-466 limits assumed): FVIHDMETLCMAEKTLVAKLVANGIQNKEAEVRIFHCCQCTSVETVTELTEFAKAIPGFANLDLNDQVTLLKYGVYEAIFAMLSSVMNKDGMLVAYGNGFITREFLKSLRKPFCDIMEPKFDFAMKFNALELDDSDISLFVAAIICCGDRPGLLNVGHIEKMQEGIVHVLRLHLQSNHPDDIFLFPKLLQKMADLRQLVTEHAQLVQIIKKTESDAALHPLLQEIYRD
Description: (§1) HEK293 cells were grown in DMEM/F12 medium supplemented with 10% FBS and glutamine (Invitrogen) and incubated in a 5% CO2 incubator at 37° C. The cells were co-transfected using DMRIE-C reagent (Invitrogen) in serum free medium (Opti-MEM, Invitrogen) with two mammalian expression plasmids, one containing the DNA sequence coding for the ligand binding domains of either PPARα, γ or δ fused to the yeast GAL4 DNA binding domain and the other containing the promoter sequence of the yeast GAL4 (UAS) fused to the firefly luciferase cDNA reporter. The next day, the medium was changed to DMEM/F12 medium supplemented with 5% charcoal treated serum (Hyclone) and glutamine. After 6 hrs the cells were trypsinized and seeded at a density of 50,000 cells/well into 96 well plates and incubated overnight as above. The cells were then treated with test compounds or vehicle and incubated for 18-24 hrs as above. Luciferase reporter activity was measured using the Steady-Glo Luciferase Assay Kit from Promega. DMRIE-C Reagent was purchased from GIBCO Cat. No. 10459-014. OPTI-MEM I Reduced Serum Medium was purchased from GIBCO (Cat. No. 31985). Steady-Glo Luciferase Assay Kit was purchased from Promega (Part #E254B).
(§2) A variety of example compounds have been made and tested, with a range of in vitro results. Below, in Table 2, are representative compounds and data; in some cases, where multiple EC50's are shown, multiple measurements were taken. Naturally, different compounds in Formula (I) may have not activities identical to any one compound below.

PPARγ = molecular target: T2, PPARγ (Homo sapiens, UniProt P37231); test: Transfection assay, GAL4-PPARγ LBD luciferase reporter in HEK293 cells
T2 construct: expressed in transfected cells; host or cells: HEK293
T2 sequence (P37231 238-503 limits assumed): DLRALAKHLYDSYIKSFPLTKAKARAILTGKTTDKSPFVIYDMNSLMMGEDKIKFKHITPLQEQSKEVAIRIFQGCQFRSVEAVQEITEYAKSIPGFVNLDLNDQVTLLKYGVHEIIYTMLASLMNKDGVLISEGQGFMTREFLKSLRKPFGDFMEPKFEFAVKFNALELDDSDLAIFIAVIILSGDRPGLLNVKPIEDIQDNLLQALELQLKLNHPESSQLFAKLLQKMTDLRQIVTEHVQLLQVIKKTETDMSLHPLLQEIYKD
Description: as §1, §2

PPARδ = molecular target: T3, PPARδ (Homo sapiens, UniProt Q03181); test: Transfection assay, GAL4-PPARδ LBD luciferase reporter in HEK293 cells
T3 construct: expressed in transfected cells; host or cells: HEK293
T3 sequence (Q03181 211-439 limits assumed): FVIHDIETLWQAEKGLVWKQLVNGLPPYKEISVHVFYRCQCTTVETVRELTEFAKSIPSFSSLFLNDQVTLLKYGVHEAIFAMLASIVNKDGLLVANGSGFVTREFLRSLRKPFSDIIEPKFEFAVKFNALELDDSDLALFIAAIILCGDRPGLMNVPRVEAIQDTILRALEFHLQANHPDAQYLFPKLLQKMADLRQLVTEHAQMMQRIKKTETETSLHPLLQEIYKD
Description: as §1, §2

SMILES	EC50 (PPARα) [µM]	EC50 (PPARγ) [µM]	EC50 (PPARδ) [µM]
COc1ccc(-c2ccc(CN3CCc4ccc(OCC(=O)O)cc4CC3)o2)cc1 [compound 44]	> 3	> 3	> 1
O=C(O)COc1ccc2c(c1)CCN(CCc1ccc(-c3ccc(C(F)(F)F)cc3)o1)CC2 [compound 45]	> 3	> 3	> 1
O=C(O)COc1ccc2c(c1)CCN(Cc1cccc(-c3ccc(C(F)(F)F)cc3)c1)CC2 [compound 47]	> 3	> 3	> 3

Second part, the molecule after the results:

EC50 (PPARα) [µM]	EC50 (PPARγ) [µM]	EC50 (PPARδ) [µM]	SMILES
> 3	> 3	> 1	O=C(O)COc1ccc2c(c1)CCN(Cc1ccnc(-c3ccc(C(F)(F)F)cc3)n1)CC2 [compound 41]
> 3	> 3	> 1	O=C(O)COc1ccc2c(c1)CCN(Cc1cncc(-c3ccc(C(F)(F)F)cc3)n1)CC2 [compound 42]
> 3	> 3	> 3	O=C(O)COc1ccc2c(c1)CCN(Cc1cccc(-c3ccc(C(F)(F)F)cc3)n1)CC2 [compound 43]
> 1	> 3	0.312	O=C(O)COc1ccc2c(c1)CCN(Cc1ccc(-c3ccc(C(F)(F)F)cc3)nc1)CC2 [compound 46]
